{"source": "patent US20050031537A1", "about": "“Multifunctional COX-2 inhibitors” (priority 2002, published 2005)", "key": {"[1]": {"experiment": "Patient with colon cancer (Example IV)", "format": "in vivo, human", "details": "person, 800 mg bid", "description": "A person presents with symptoms of constipation and rectal bleeding and is diagnosed with colon cancer."}, "[2]": {"system": "EGFR", "experiment": "Western blotting for expression of EGFR (test (b))", "format": "cell-based, human", "details": "for Test (b) EGFR: at least 50% decrease in level of or 50% downregulation of expression: positive in 184B5, 184B5/HER, 1483, LNCaP, HeLa and CaSki cells, 24 h, Western blot", "description": "(§1) We turn now to the criterion (b), that is at least 50% decrease in level of or 50% downregulation of expression of Class I family of receptors tyrosine kinase. The Class I family of receptors tyrosine kinase is described in Reese, M. D., et al Stem Cells 15, pages 1-8 (1997), the whole of which in incorporated herein by reference. Members of the family include HER-2/neu, HER-3, HER-4 and epidermal growth factor receptor (EGFR) and are single-chain membrane spanning proteins which have significant homology to one another including about 80% amino acid identity in the tyrosine kinase domain.\nEpidermal growth factor receptor (EGFR) is a 170 kDA glycoprotein. […] After ligand binding, EGFR undergoes dimerization which is essential for activation of its enzymatic kinase activity. EGFR is thus autophospliorylated and transphosphorylated on tyrosine residues, and the phosphorylated residues become the site of association of effector proteins. Overexpressed EGFR is intimately involved in modulating the epidermal growth factor growth signal and is considered as likely to confer a growth advantage. This conclusion is supported by the observation that tumor growth in nude mice is inhibited by treatment with anti-EGFR antibodies and tumorigenicity in nude mice is inhibited through blockage of the tyrosine kinase activity of the receptor.\n(§2) To evaluate the expression of Class I family of receptors tyrosine kinase (EGFR, HER-2/neu), Western blotting can be performed. Antibodies for EGFR and HER-2/neu can be obtained from Santa Cruz Biotechnology, Inc.\n(§3) Expression of EGFR (performed in 184B5, 184B5/HER, 1483, LNCaP, HeLa and CaSki cells)and HER-2/neu (performed in 184B5/HER, SKBR3 and BT474 cells) was assessed in cells after treatment with test compound for 24 hours. 5×10^6 cells were used for the treatment. Western blotting technique was used to assess the expression levels in cells treated with the test compound compared to vehicle alone. Western blotting was carried out as follows:\n(§4) Cell lysates were prepared by treating cells with lysis buffer (150 mM NaCl, 100 mM Tris (pH 8.0), 1% Tween 20, 50 mM diethyldithiocarbamate, 1 mM EDTA, 1 mM phenylmethylsulfonyl fluoride, 10 μg/ml aprotinin, 10 μg/ml trypsin inhibitor and 10 μg/ml leupeptin). Lysates were sonicated for 20 s on ice and centrifuged at 10,000×g for 10 min to sediment the particulate material. The protein concentration of the supernatant was measured by the method of Lowry, O. H., et al., J. Biol. Chem. 193, 265-275 (195 1). SDS/PAGE was performed under reducing conditions on 10% polyacrylamide gels as described by Laemmli, U.K., Nature (Lond.) 227, 680-685 (1970). The resolved proteins were transferred onto nitrocellulose sheets as detailed by Towbin, H. et al., Proc. Natl. Acad. Sci. USA 76, 4350-4354 (1979). The nitrocellulose membrane was then incubated with anti-EGFR antiserum or anti-HER-2/neu antiserum. Secondary antibody to IgG conjugated to horseradish peroxidase was used. The various antisera were purchased from Santa Cruz Biotechnology, Inc., CA. The blots were probed with the Renaissance Western blot detection system according to the manufacturer's instructions (PerkinElmer Life Sciences, Boston, Mass.)."}, "[3]": {"system": "PPRE luciferase", "experiment": "PPRE luciferase activation, transient transfection reporter assay (test (a))", "format": "cell-based, human", "details": "for Test (a) activation of PPRE luciferase by at least 100%: positive in 184B5, 184B5/HER, HCA7, HCT116, SKBR3 and BT474 cells, 24 h treatment"}, "[4]": {"system": "HER-2/neu", "experiment": "Western blotting for expression of HER-2/neu (test (b))", "format": "cell-based, human", "details": "positive in 184B5/HER, BT474 and SKBR3 cells; 24 h; Western blot", "description": "as §1\nHER-2/neu (erbB-2) gene product is a 185-kDA transmembrane receptor tyrosine kinase that is described in some detail in said Reese et al publication and overexpression thereof has been associated with tumor growth in several kinds of cancer.\nas §2, §3, §4"}, "[5]": {"experiment": "Patient with cervical intraepithelial neoplasia, HPV 16 detected (Example VIII)", "format": "in vivo, human", "details": "person, 0.5% in a cream on sponge/cervical cap, six months", "description": "A person presents to their gynecologist for evaluation. […] On biopsy, the patient is found to have cervical intraepithelial neoplasia. HPV 16 is detected. […] The SC-236 is discontinued with no recurrence of cervical intraepithelial neoplasia."}}, "data": [{"compound": "Cc1ccc(-c2cc(C(F)(F)F)nn2-c2ccc(S(N)(=O)=O)cc2)cc1", "note": "[Celecoxib]", "values": [{"measurement": "rate of progression of the colon cancer", "setting": "[1]", "result": "decreases"}, {"measurement": "Test (b) EGFR: at least 50% decrease in level of or 50% downregulation of expression", "setting": "[2]", "result": "+ (A plus sign in the table indicates a positive result, that is meeting the test for each cell line as indicated above as providing a positive result)"}, {"measurement": "Test (a) activation of PPRE luciferase by at least 100%", "setting": "[3]", "result": "+ (A plus sign in the table indicates a positive result, that is meeting the test for each cell line as indicated above as providing a positive result)"}, {"measurement": "Test (b) HER-2/neu: at least 50% decrease in level of or 50% downregulation of expression", "setting": "[4]", "result": "+ (A plus sign in the table indicates a positive result, that is meeting the test for each cell line as indicated above as providing a positive result)"}]}, {"compound": "CCCCCCCOC(=O)Cc1c(C)n(C(=O)c2ccc(Cl)cc2)c2ccc(OC)cc12", "note": "[Indomethacin Analog 1, indomethacin heptyl ester]", "values": [{"measurement": "Test (b) EGFR: at least 50% decrease in level of or 50% downregulation of expression", "setting": "[2]", "result": "+ (A plus sign in the table indicates a positive result, that is meeting the test for each cell line as indicated above as providing a positive result)"}, {"measurement": "Test (a) activation of PPRE luciferase by at least 100%", "setting": "[3]", "result": "+ (A plus sign in the table indicates a positive result, that is meeting the test for each cell line as indicated above as providing a positive result)"}, {"measurement": "Test (b) HER-2/neu: at least 50% decrease in level of or 50% downregulation of expression", "setting": "[4]", "result": "+ (A plus sign in the table indicates a positive result, that is meeting the test for each cell line as indicated above as providing a positive result)"}]}, {"compound": "COc1ccc(OC(=O)Cc2c(C)n(C(=O)c3ccc(Cl)cc3)c3ccc(OC)cc23)cc1", "note": "[Indomethacin Analog 3, 1-(p-chlorobenzoyl)-5-methoxy-2-methyl-1H-indole-3-acetic acid, 4-methoxyphenyl ester]", "values": [{"measurement": "Test (b) EGFR: at least 50% decrease in level of or 50% downregulation of expression", "setting": "[2]", "result": "+ (A plus sign in the table indicates a positive result, that is meeting the test for each cell line as indicated above as providing a positive result)"}, {"measurement": "Test (a) activation of PPRE luciferase by at least 100%", "setting": "[3]", "result": "+ (A plus sign in the table indicates a positive result, that is meeting the test for each cell line as indicated above as providing a positive result)"}, {"measurement": "Test (b) HER-2/neu: at least 50% decrease in level of or 50% downregulation of expression", "setting": "[4]", "result": "+ (A plus sign in the table indicates a positive result, that is meeting the test for each cell line as indicated above as providing a positive result)"}]}, {"compound": "CS(=O)(=O)c1ccc(-n2nc(C(F)(F)F)cc2-c2ccc(F)cc2)cc1", "note": "[SC-58125, 4-[5-(4-fluorophenyl)-3-(trifluoromethyl)-1H-pyrazol-1-yl]benzenemethylsulfone]", "values": [{"measurement": "Test (b) EGFR: at least 50% decrease in level of or 50% downregulation of expression", "setting": "[2]", "result": "+ (A plus sign in the table indicates a positive result, that is meeting the test for each cell line as indicated above as providing a positive result)"}, {"measurement": "Test (a) activation of PPRE luciferase by at least 100%", "setting": "[3]", "result": "+ (A plus sign in the table indicates a positive result, that is meeting the test for each cell line as indicated above as providing a positive result)"}, {"measurement": "Test (b) HER-2/neu: at least 50% decrease in level of or 50% downregulation of expression", "setting": "[4]", "result": "+ (A plus sign in the table indicates a positive result, that is meeting the test for each cell line as indicated above as providing a positive result)"}]}, {"compound": "NS(=O)(=O)c1ccc(-n2nc(C(F)(F)F)cc2-c2ccc(Cl)cc2)cc1", "note": "[SC-236, 4-[5-(4-chlorophenyl)-3-(trifluoromethyl)-1H-pyrazol-1-yl]benzenesulfonamide]", "values": [{"measurement": "rate of progression of the colon cancer", "setting": "[1]", "result": "decreases"}, {"measurement": "decrease in level of EGFR", "setting": "[2]; 184B5 cells, 24 hours, Western blotting", "result": "more than 50%"}, {"measurement": "Test (b) EGFR: at least 50% decrease in level of or 50% downregulation of expression", "setting": "[2]", "result": "+ (A plus sign in the table indicates a positive result, that is meeting the test for each cell line as indicated above as providing a positive result)"}, {"measurement": "repeat biopsy finding of cervical intraepithelial neoplasia", "setting": "[5]", "result": "no further evidence of cervical intraepithelial neoplasia"}, {"measurement": "activation of the promoter (PPRE-luciferase)", "setting": "[3]; 184B5 cells, 24 hours, highest concentration", "result": 150, "unit": "%"}, {"measurement": "Test (a) activation of PPRE luciferase by at least 100%", "setting": "[3]", "result": "+ (A plus sign in the table indicates a positive result, that is meeting the test for each cell line as indicated above as providing a positive result)"}, {"measurement": "Test (b) HER-2/neu: at least 50% decrease in level of or 50% downregulation of expression", "setting": "[4]", "result": "+ (A plus sign in the table indicates a positive result, that is meeting the test for each cell line as indicated above as providing a positive result)"}]}]}
